Experimental data taken from ChEMBL document CHEMBL5050861 (2021).
Values after ≈ are worked out from the molar mass of the structure shown.

Assays:
[1] = Inhibition of recombinant mouse GALK1 using ATP as substrate incubated for 1 hr and measured by Kinase-Glo assay
[2] = Stability of compound in rat microsomes assessed as half-life; assay type: ADME, Microsome
[3] = Permeability of compound by PAMPA assay; assay type: ADME; conditions: for Papp: read-out: permeability
[4] = Kinetic aqueous solubility of the compound; assay type: physicochemical; conditions: buffer; read-out: Kinetic_solubility

Compound | IC50 ([1]; read-out: IC50) | half-life [2] | Papp [3] | solubility kinetic [4] | permeability [3] | IC50 [1]
CC1=C(C(=O)Nc2cc(C(=O)O)ccn2)C(c2ccccc2Cl)N=C(Nc2nc3ccccc3o2)N1C(=O)c1ccccc1 (stereo unspecified) | 7.69 µM | > 30 min | < 1 ×10⁻⁶ cm/s | 73.9 µg/mL (≈ 122 µM) |  | 
CCOc1ccc(C2N=C(Nc3nc4ccc(F)cc4o3)NC(C)=C2C(=O)Nc2cc(C(=O)O)ccn2)c(Cl)c1 (stereo unspecified) | 3.85 µM | > 30 min | < 1 ×10⁻⁶ cm/s | 11.3 µg/mL (≈ 20 µM) |  | 
CC1=C(C(=O)Nc2cc(C(=O)O)ccn2)[C@@H](c2ccc(C)cc2Cl)N=C(Nc2nc3ccc(F)cc3o2)N1 | 6.85 µM | > 30 min | < 1 ×10⁻⁶ cm/s | 53.8 µg/mL (≈ 101 µM) |  | 
CC1=C(C(=O)Nc2cc(C(=O)O)ccn2)[C@H](c2ccccc2Cl)N=C(Nc2nc3ccccc3o2)N1 | 3.43 µM | > 30 min | < 1 ×10⁻⁶ cm/s | > 74 µg/mL |  | 
CC1=C(C(=O)Nc2nncs2)C2(CCCC2)N=C(Nc2nc3ccccc3o2)N1 | 19.3 µM | > 30 min | < 1 ×10⁻⁶ cm/s | < 1 µg/mL |  | 
CC1=C(C(=O)Nc2nnc(-c3cccnc3)s2)C(c2ccccc2Cl)N=C(Nc2nc3ccccc3o2)N1 (stereo unspecified) | 9.68 µM | > 30 min | < 3.7 ×10⁻⁶ cm/s | < 1 µg/mL |  | 
O=C1CC(C(=O)Nc2nncs2)CC2=C1C(c1ccccc1Cl)N=C(Nc1nc3ccccc3o1)N2 (stereo unspecified) | 12.2 µM | > 30 min | < 5 ×10⁻⁶ cm/s | 1.23 µg/mL (≈ 2.37 µM) |  | 
CC1=C(C(=O)Nc2cc(C(=O)O)ccn2)[C@H](c2ccc(C)cc2Cl)N=C(Nc2nc3cccc(N)c3o2)N1 | 1.41 µM | > 30 min | < 1 ×10⁻⁶ cm/s | > 53 µg/mL |  | 
CC1=C(C(=O)Nc2cc(C(=O)O)ccn2)[C@H](c2ccc(C)cc2Cl)N=C(Nc2nc3ccc(F)cc3o2)N1 | 1.37 µM | > 30 min | < 1 ×10⁻⁶ cm/s | > 79 µg/mL |  | 
CC1=C(C(=O)Nc2cc(-c3nn[nH]n3)ccn2)C(c2ccccc2Cl)N=C(Nc2nc3ccc(F)cc3o2)N1 (stereo unspecified) | 7.69 µM | > 30 min | < 1 ×10⁻⁶ cm/s | 29.9 µg/mL (≈ 54.9 µM) |  | 
CC1=C(C(=O)Nc2ccc(C#N)cc2)C(c2ccccc2Cl)N=C(Nc2nc3ccccc3o2)N1 (stereo unspecified) | 13.7 µM | 25.3 min | < 18.7 ×10⁻⁶ cm/s | < 1 µg/mL |  | 
CC1=C(C(=O)Nc2cc(C(=O)O)ccn2)[C@@H](c2ccccc2Cl)N=C(Nc2nc3ccccc3o2)N1 | 19.3 µM | > 30 min | < 1 ×10⁻⁶ cm/s | > 74 µg/mL |  | 
CC1=C(C(=O)Nc2cc(C(=O)O)ccn2)C(c2ccc(C)cc2Cl)N=C(Nc2nc3cnccc3o2)N1 (stereo unspecified) | 6.85 µM | > 30 min | < 1 ×10⁻⁶ cm/s | > 51 µg/mL |  | 
CC1=C(C(=O)Nc2ccc(C(=O)O)nc2)C(c2ccccc2Cl)N=C(Nc2nc3ccccc3o2)N1 (stereo unspecified) | 9.68 µM | > 30 min | < 1 ×10⁻⁶ cm/s | 24.6 µg/mL (≈ 48.9 µM) |  | 
CC1=C(C(=O)NCc2cnn(C)c2)C(c2ccc(C)cc2Cl)N=C(Nc2nc3ccc(F)c(C(=O)O)c3o2)N1 (stereo unspecified) | 21.7 µM | > 30 min | < 1 ×10⁻⁶ cm/s | 26.3 µg/mL (≈ 47.6 µM) |  | 
CN(C)CCNC(=O)C1CC(=O)C2=C(C1)NC(Nc1nc3ccccc3o1)=NC2c1ccccc1Cl (stereo unspecified) | 12.2 µM | > 30 min | < 9.8 ×10⁻⁶ cm/s | 61.8 µg/mL (≈ 122 µM) |  | 
CC1=C(C(=O)Nc2cc(C(=O)O)ccn2)C(c2ccc(-n3cccn3)cc2Cl)N=C(Nc2nc3ccc(F)cc3o2)N1 (stereo unspecified) | 3.43 µM | > 30 min | < 1 ×10⁻⁶ cm/s | > 87 µg/mL |  | 
CC1=C(C(=O)NCCN(C)C)C(c2ccccc2Cl)N=C(Nc2nc3ccccc3o2)N1 (stereo unspecified) | 15.3 µM | > 30 min | > 1230 ×10⁻⁶ cm/s | > 67 µg/mL |  | 
CC1=C(C(=O)Nc2ccccc2CO)C(c2ccccc2Cl)N=C(Nc2nc3ccccc3o2)N1 (stereo unspecified) | 17.2 µM | 7.71 min |  | < 1 µg/mL | 1038.5 10^-6 cm/s | 
CC1=C(C(=O)N2CCOCC2)C(c2ccccc2Cl)N=C(Nc2nc3ccccc3o2)N1 (stereo unspecified) | 24.3 µM | 2.1 min |  | 15.3 µg/mL (≈ 33.9 µM) | 1046.7 10^-6 cm/s | 

Compound | IC50 ([1]; read-out: IC50) | half-life [2] | Papp [3] | solubility kinetic [4] | permeability [3] | IC50 [1]
CC1=C(C(=O)Nc2cc(C(=O)O)ccn2)C(c2ccc(C)cc2Cl)N=C(Nc2nc3cccnc3o2)N1 (stereo unspecified) |  | > 30 min | < 1 ×10⁻⁶ cm/s | > 51 µg/mL |  | Not Active
CCn1cc(CNC(=O)C2=C(C)NC(Nc3nc4ccc(F)cc4o3)=NC2c2ccc(C)cc2Cl)cn1 (stereo unspecified) | 6.85 µM | 9.22 min | < 21.9 ×10⁻⁶ cm/s | < 1 µg/mL |  | 
CC1=C(C(=O)Nc2cc(C(=O)O)ccn2)C(c2ccccc2Cl)N=C(Nc2nc3c(N)cccc3o2)N1 (stereo unspecified) | 30.6 µM | > 30 min | < 1 ×10⁻⁶ cm/s | > 76 µg/mL |  | 
CC1=C(C(=O)NCc2cccnc2)C(c2ccccc2Cl)N=C(Nc2nc3ccccc3o2)N1 (stereo unspecified) | 19.3 µM | 1.58 min |  | < 1 µg/mL | 1248.8 10^-6 cm/s | 
CC1=C(C(=O)Nc2ccc(C#N)cn2)C(c2ccccc2Cl)N=C(Nc2nc3ccc(F)cc3o2)N1 (stereo unspecified) | 13.7 µM | > 30 min | < 7.8 ×10⁻⁶ cm/s | < 1 µg/mL |  | 
O=C1CC(C(=O)NCCO)CC2=C1C(c1ccccc1Cl)N=C(Nc1nc3ccccc3o1)N2 (stereo unspecified) | 5.44 µM | > 30 min | < 2 ×10⁻⁶ cm/s | 29 µg/mL (≈ 60.4 µM) |  | 
CC1=C(C(=O)Nc2cc(C(=O)O)ccn2)[C@H](c2ccccc2Cl)N=C(Nc2nc3ccc(F)cc3o2)N1 | 1.72 µM | > 30 min | < 1 ×10⁻⁶ cm/s | 55.6 µg/mL (≈ 107 µM) |  | 
CC1=C(C(=O)Nc2ccc(C(N)=O)cc2)C(c2ccccc2Cl)N=C(Nc2nc3ccccc3o2)N1 (stereo unspecified) | 6.85 µM | > 30 min | < 6.3 ×10⁻⁶ cm/s | < 1 µg/mL |  | 
CC1=C(C(=O)Nc2cc(B(O)O)ccn2)C(c2ccc(C)cc2Cl)N=C(Nc2nc3ccc(F)cc3o2)N1 (stereo unspecified) | 10.9 µM | 14.1 min | < 3.2 ×10⁻⁶ cm/s | < 1 µg/mL |  | 
CC1=C(C(=O)NCc2ccccc2CO)C(c2ccccc2Cl)N=C(Nc2nc3ccccc3o2)N1 (stereo unspecified) | 15.3 µM | 5.09 min |  | < 1 µg/mL | 1362.3 10^-6 cm/s | 
CCOC(=O)N1C(Nc2nc3ccccc3o2)=NC(c2ccccc2Cl)C(C(=O)Nc2cc(C(=O)O)ccn2)=C1C (stereo unspecified) | 19.3 µM | > 30 min | < 1 ×10⁻⁶ cm/s | > 85 µg/mL |  | 
CC1=C(C(=O)Nc2nncs2)C(c2ccc(C)cc2Cl)N=C(Nc2nc3ccccc3o2)N1 (stereo unspecified) | 6.11 µM | > 30 min | < 14.4 ×10⁻⁶ cm/s | < 1 µg/mL |  | 
COc1ccc([C@@H]2N=C(Nc3nc4cccc(N)c4o3)NC(C)=C2C(=O)Nc2cc(C(=O)O)ccn2)c(Cl)c1 | 2.43 µM | > 30 min | < 1 ×10⁻⁶ cm/s | > 81 µg/mL |  | 
CC1=C(C(=O)Nc2nncs2)C(c2ccc(Cl)cc2Cl)N=C(Nc2nc3ccccc3o2)N1 (stereo unspecified) | 6.11 µM | > 30 min | < 4.9 ×10⁻⁶ cm/s | < 1 µg/mL |  | 
COc1ccc2nc(NC3=NC(c4ccccc4Cl)C(C(=O)Nc4cc(C(=O)O)ccn4)=C(C)N3)oc2c1 (stereo unspecified) | 21.7 µM | > 30 min | < 1 ×10⁻⁶ cm/s | > 79 µg/mL |  | 
CC1=C(C(=O)Nc2cc(C(=O)O)ccn2)C(c2ccc(-c3ccc(C(F)(F)F)nc3)cc2Cl)N=C(Nc2nc3ccc(F)cc3o2)N1 (stereo unspecified) | 3.85 µM | > 30 min | < 1 ×10⁻⁶ cm/s | 28.6 µg/mL (≈ 42.9 µM) |  | 
CC1=C(C(=O)Nc2cc(C(=O)O)ccn2)[C@@H](c2ccccc2Cl)N=C(Nc2nc3cccc(N)c3o2)N1 | 34.4 µM | > 30 min | < 1.3 ×10⁻⁶ cm/s | > 76 µg/mL |  | 
CC1=C(C(=O)Nc2cccc(CO)c2)C(c2ccccc2Cl)N=C(Nc2nc3ccccc3o2)N1 (stereo unspecified) | 9.68 µM | > 30 min |  | < 1 µg/mL | 1124.1 10^-6 cm/s | 
CC1=C(C(=O)NCc2ccc(C(=O)O)cc2)C(c2ccccc2Cl)N=C(Nc2nc3ccccc3o2)N1 (stereo unspecified) | 10.9 µM | > 30 min | < 1 ×10⁻⁶ cm/s | 47 µg/mL (≈ 91.1 µM) |  | 
